The values below come from patent US20250381243A1, “HETEROCYCLES AND USES THEREOF” (Kumquat Biosciences Inc., priority 2022, published 2025).

Structures are written as SMILES.

The first assay has as its system A549 cells. Nature of the assay: Cell proliferation assay (CellTiter-Glo), cells with K-Ras G12S mutation. In kind it is cell-based. Particulars: Homo sapiens, 500 nM to 5 μM (mixed units), read-out: Inhibition of A549 Cells (IC50). As to the method: A549 (ATCC CRL-185) and LS123 (ATCC CRL-255) cell lines comprise a G12S mutation and can be used to assess Ras cellular signaling in vitro, e.g., in response to treatment with a compound described herein. A549 culture medium is prepared with RPMI-1640 and 10% heat-inactivated FBS. LS123 culture medium is prepared with RPMI-1640 and 10% heat-inactivated FBS. A CellTiter-Glo (CTG) luminescent based assay (Promega) is used to assess growth of the cells, as a measurement of the ability of the compounds herein to inhibit Ras signaling in the cells. The cells (e.g., 800 per well) are seeded in their respective culture medium in standard tissue culture-treated 384-well format plates (Falcon #08-772-116) or ultra-low attachment surface 384-well format plates (S-Bio #MS-9384WZ). The day after plating, cells are treated with a dilution series (e.g., a 10 point 3-fold dilution series) of the compounds herein (e.g., approximately 40 μl final volume per well). Cell viability can be monitored (e.g., approximately 6 days later) according to the manufacturer's recommended instructions, where CellTiter-Glo reagent is added (e.g., approximately 10 μl), vigorously mixed, covered, and placed on a plate shaker (e.g., approximately for 20 min) to ensure sufficient cell lysis prior to assessment of luminescent signal. The IC50 values are determined using the four parameter fit. The resulting IC50 value is a measurement of the ability of the test compound to reduce cell growth of Ras-driven cells (e.g., tumor cell lines) in vitro and/or in vivo.
As for `CN(C(=O)n1cncn1)C1CN(c2nc(OC[C@@]34CCCN3C[C@H](F)C4)nc3c(F)c(-c4ccc(F)c5sc(N)c(C#N)c45)c(Cl)cc23)CC12CC2` (stereo partly drawn) [Compound 140, N-(5-(7-(2-amino-3-cyano-7-fluorobenzo[b]thiophen-4-yl)-6-chloro-8-fluoro-2-(((2R,7aS)-2-fluorotetrahydro-1H-pyrrolizin-7a(5H)-yl)methoxy)quinazolin-4-yl)-5-azaspiro[2.4]heptan-7-yl)-N-methyl-1H-1,2,4-triazole-1-carboxamide], the IC50 lay within 500 to 5000 nM.

For `N#CCCN(C(=O)n1cncn1)C1CCN(c2nc(OC[C@@]34CCCN3C[C@H](F)C4)nc3c(F)c(-c4ccc(F)c5sc(N)c(C#N)c45)c(Cl)cc23)C1` (stereo partly drawn) [Compound 145, N-(1-(7-(2-amino-3-cyano-7-fluorobenzo[b]thiophen-4-yl)-6-chloro-8-fluoro-2-(((2R,7aS)-2-fluorotetrahydro-1H-pyrrolizin-7a(5H)-yl)methoxy)quinazolin-4-yl)pyrrolidin-3-yl)-N-(2-cyanoethyl)-1H-1,2,4-triazole-1-carboxamide], the IC50 is 500 to 5000 nM.

Turning to `CCN(C(=O)n1cnc(Cl)n1)C1CCN(c2nc(OC[C@@]34CCCN3C[C@H](F)C4)nc3c(F)c(-c4ccc(F)c5sc(N)c(C#N)c45)c(Cl)cc23)C1C` (stereo partly drawn) [Compound 149, N-(1-(7-(2-amino-3-cyano-7-fluorobenzo[b]thiophen-4-yl)-6-chloro-8-fluoro-2-(((2R,7aS)-2-fluorotetrahydro-1H-pyrrolizin-7a(5H)-yl)methoxy)quinazolin-4-yl)-2-methylpyrrolidin-3-yl)-3-chloro-N-ethyl-1H-1,2,4-triazole-1-carboxamide], the IC50 was 500 to 5000 nM.

The assay is the same for the next values; noted with them: Homo sapiens, ≤500 nM, read-out: Inhibition of A549 Cells (IC50).
Consider `CC(C)[C@H]1N(C(=O)n2cnc(Cl)n2)C[C@@]12CN(c1nc(OC[C@@]34CCCN3C[C@H](F)C4)nc3c(F)c(-c4ccc(F)c5sc(N)c(C#N)c45)c(Cl)cc13)CCO2` [Compound 134, 2-amino-4-(6-chloro-4-((1R,4S)-2-(3-chloro-1H-1,2,4-triazole-1-carbonyl)-1-isopropyl-5-oxa-2,8-diazaspiro[3.5]nonan-8-yl)-8-fluoro-2-(((2R,7aS)-2-fluorotetrahydro-1H-pyrrolizin-7a(5H)-yl)methoxy)quinazolin-7-yl)-7-fluorobenzo[b]thiophene-3-carbonitrile], for which the 50% inhibitory concentration (IC50) is no more than 500 nM.

As for `N#Cc1c(N)sc2c(F)ccc(-c3c(Cl)cc4c(N5CCC(N(C(=O)n6cncn6)C6CC6)C5)nc(OC[C@@]56CCCN5C[C@H](F)C6)nc4c3F)c12` (stereo partly drawn) [Compound 135, N-(1-(7-(2-amino-3-cyano-7-fluorobenzo[b]thiophen-4-yl)-6-chloro-8-fluoro-2-(((2R,7aS)-2-fluorotetrahydro-1H-pyrrolizin-7a(5H)-yl)methoxy)quinazolin-4-yl)pyrrolidin-3-yl)-N-cyclopropyl-1H-1,2,4-triazole-1-carboxamide], the concentration for half-maximal inhibition (IC50) was no more than 500 nM.

With `C=CCN(C[C@@H]1CN(C(=O)n2cnc(F)n2)[C@@H]1C1(C)CC1)c1nc(OC[C@@]23CCCN2C[C@H](F)C3)nc2c(F)c(-c3ccc(F)c4sc(N)c(C#N)c34)c(Cl)cc12` [Compound 136, 4-(4-(allyl(((2S,3R)-1-(3-fluoro-1H-1,2,4-triazole-1-carbonyl)-2-(1-methylcyclopropyl)azetidin-3-yl)methyl)amino)-6-chloro-8-fluoro-2-(((2R,7aS)-2-fluorotetrahydro-1H-pyrrolizin-7a(5H)-yl)methoxy)quinazolin-7-yl)-2-amino-7-fluorobenzo[b]thiophene-3-carbonitrile], the IC50 was no more than 500 nM.

As to `CC(C)[C@H]1N(C(=O)n2cnc(Cl)n2)C[C@]12C[C@@H](CC#N)CN(c1nc(OC[C@@]34CCCN3C[C@H](F)C4)nc3c(F)c(-c4ccc(F)c5sc(N)c(C#N)c45)c(Cl)cc13)C2` [Compound 137, 2-amino-4-(6-chloro-4-((1R,4R,8S)-2-(3-chloro-1H-1,2,4-triazole-1-carbonyl)-8-(cyanomethyl)-1-isopropyl-2,6-diazaspiro[3.5]nonan-6-yl)-8-fluoro-2-(((2R,7aS)-2-fluorotetrahydro-1H-pyrrolizin-7a(5H)-yl)methoxy)quinazolin-7-yl)-7-fluorobenzo[b]thiophene-3-carbonitrile], the IC50 is no more than 500 nM.

For `CC(C)[C@H]1N(C(=O)n2cnc(C(F)F)n2)C[C@@]12CN(c1nc(OC[C@@]34CCCN3C[C@H](F)C4)nc3c(F)c(-c4ccc(F)c5sc(N)c(C#N)c45)c(Cl)cc13)CCO2` [Compound 138, 2-amino-4-(6-chloro-4-((1R,4S)-2-(3-(difluoromethyl)-1H-1,2,4-triazole-1-carbonyl)-1-isopropyl-5-oxa-2,8-diazaspiro[3.5]nonan-8-yl)-8-fluoro-2-(((2R,7aS)-2-fluorotetrahydro-1H-pyrrolizin-7a(5H)-yl)methoxy)quinazolin-7-yl)-7-fluorobenzo[b]thiophene-3-carbonitrile], the half-inhibitory concentration (IC50) is no more than 500 nM.

Turning to `CC(C)[C@H]1N(C(=O)n2cnc(F)n2)C[C@]12CCCCN(c1nc(OC[C@@]34CCCN3C[C@H](F)C4)nc3c(F)c(-c4ccc(F)c5sc(N)c(C#N)c45)c(Cl)cc13)C2` [Compound 141, 2-amino-4-(6-chloro-8-fluoro-4-((1R,4R)-2-(3-fluoro-1H-1,2,4-triazole-1-carbonyl)-1-isopropyl-2,6-diazaspiro[3.6]decan-6-yl)-2-(((2R,7aS)-2-fluorotetrahydro-1H-pyrrolizin-7a(5H)-yl)methoxy)quinazolin-7-yl)-7-fluorobenzo[b]thiophene-3-carbonitrile], the half-maximal inhibitory concentration (IC50) was no more than 500 nM.

As for `CC(C)[C@H]1N(C(=O)n2cnc(Cl)n2)C[C@]12CCCCN(c1nc(OC[C@@]34CCCN3C[C@H](F)C4)nc3c(F)c(-c4ccc(F)c5sc(N)c(C#N)c45)c(Cl)cc13)C2` [Compound 142, 2-amino-4-(6-chloro-4-((1R,4R)-2-(3-chloro-1H-1,2,4-triazole-1-carbonyl)-1-isopropyl-2,6-diazaspiro[3.6]decan-6-yl)-8-fluoro-2-(((2R,7aS)-2-fluorotetrahydro-1H-pyrrolizin-7a(5H)-yl)methoxy)quinazolin-7-yl)-7-fluorobenzo[b]thiophene-3-carbonitrile], the concentration for half-maximal inhibition (IC50) is no more than 500 nM.

In the case of `N#Cc1c(N)sc2c(F)ccc(-c3c(Cl)cc4c(N5CCC(N(C(=O)n6cnc(Cl)n6)C6CC6)C5)nc(OC[C@@]56CCCN5C[C@H](F)C6)nc4c3F)c12` (stereo partly drawn) [Compound 143, N-(1-(7-(2-amino-3-cyano-7-fluorobenzo[b]thiophen-4-yl)-6-chloro-8-fluoro-2-(((2R,7aS)-2-fluorotetrahydro-1H-pyrrolizin-7a(5H)-yl)methoxy)quinazolin-4-yl)pyrrolidin-3-yl)-3-chloro-N-cyclopropyl-1H-1,2,4-triazole-1-carboxamide], the half-maximal inhibitory concentration (IC50) is no more than 500 nM.

Take `CC(C)[C@@H]1[C@H](CN(C)c2nc(OC[C@@]34CCCN3C[C@H](F)C4)nc3c(F)c(-c4ccc(F)c5sc(N)c(C#N)c45)c(Cl)cc23)CN1C(=O)n1cnc(F)n1` [Compound 144, 2-amino-4-(6-chloro-8-fluoro-4-((((2R,3R)-1-(3-fluoro-1H-1,2,4-triazole-1-carbonyl)-2-isopropylazetidin-3-yl)methyl)(methyl)amino)-2-(((2R,7aS)-2-fluorotetrahydro-1H-pyrrolizin-7a(5H)-yl)methoxy)quinazolin-7-yl)-7-fluorobenzo[b]thiophene-3-carbonitrile]: the IC50 was no more than 500 nM.

For the molecule `C[C@H]1CC[C@]2(CN(C(=O)n3cnc(Cl)n3)[C@@H]2C2CCC2)CN1c1nc(OC[C@@]23CCCN2C[C@H](F)C3)nc2c(F)c(-c3ccc(F)c4sc(N)c(C#N)c34)c(Cl)cc12` [Compound 146, 2-amino-4-(6-chloro-4-((1R,4R,7S)-2-(3-chloro-1H-1,2,4-triazole-1-carbonyl)-1-cyclobutyl-7-methyl-2,6-diazaspiro[3.5]nonan-6-yl)-8-fluoro-2-(((2R,7aS)-2-fluorotetrahydro-1H-pyrrolizin-7a(5H)-yl)methoxy)quinazolin-7-yl)-7-fluorobenzo[b]thiophene-3-carbonitrile], the half-maximal inhibitory concentration (IC50) is no more than 500 nM.

Take `N#Cc1c(N)sc2c(F)ccc(-c3c(Cl)cc4c(N5CCCC[C@@]6(C5)CN(C(=O)n5cnc(Cl)n5)[C@@H]6C5CC5)nc(OC[C@@]56CCCN5C[C@H](F)C6)nc4c3F)c12` [Compound 147, 2-amino-4-(6-chloro-4-((1R,4R)-2-(3-chloro-1H-1,2,4-triazole-1-carbonyl)-1-cyclopropyl-2,6-diazaspiro[3.6]decan-6-yl)-8-fluoro-2-(((2R,7aS)-2-fluorotetrahydro-1H-pyrrolizin-7a(5H)-yl)methoxy)quinazolin-7-yl)-7-fluorobenzo[b]thiophene-3-carbonitrile]: the IC50 is no more than 500 nM.

For the molecule `CN(C[C@@H]1CN(C(=O)n2cnc(F)n2)[C@@H]1C1(CF)CC1)c1nc(OC[C@@]23CCCN2C[C@H](F)C3)nc2c(F)c(-c3ccc(F)c4sc(N)c(C#N)c34)c(Cl)cc12` [Compound 148, 2-amino-4-(6-chloro-8-fluoro-4-((((2S,3R)-1-(3-fluoro-1H-1,2,4-triazole-1-carbonyl)-2-(1-(fluoromethyl)cyclopropyl)azetidin-3-yl)methyl)(methyl)amino)-2-(((2R,7aS)-2-fluorotetrahydro-1H-pyrrolizin-7a(5H)-yl)methoxy)quinazolin-7-yl)-7-fluorobenzo[b]thiophene-3-carbonitrile], the IC50 was no more than 500 nM.
